Measured values reported in PMC7721796, “Molecular basis of regio- and stereo-specificity in biosynthesis of bacterial heterodimeric diketopiperazines” (Nature Communications, 2020).
Where a chain is given by its changes, count along the chain named.

Experiments:
NasbB = target: T1, NasbB (Streptomyces sp., UniProt A0A7T3QX21); type: biochemical; conditions: […] substrate, […] P450, spinach Fd/FdR, NADPH recycling, pH […] °C, […] h; product NAS-B
T1 construct: codon-optimised gene in pMS1, Mycobacterium smegmatis mc2 155
T1 sequence (A0A7T3QX21 1-422): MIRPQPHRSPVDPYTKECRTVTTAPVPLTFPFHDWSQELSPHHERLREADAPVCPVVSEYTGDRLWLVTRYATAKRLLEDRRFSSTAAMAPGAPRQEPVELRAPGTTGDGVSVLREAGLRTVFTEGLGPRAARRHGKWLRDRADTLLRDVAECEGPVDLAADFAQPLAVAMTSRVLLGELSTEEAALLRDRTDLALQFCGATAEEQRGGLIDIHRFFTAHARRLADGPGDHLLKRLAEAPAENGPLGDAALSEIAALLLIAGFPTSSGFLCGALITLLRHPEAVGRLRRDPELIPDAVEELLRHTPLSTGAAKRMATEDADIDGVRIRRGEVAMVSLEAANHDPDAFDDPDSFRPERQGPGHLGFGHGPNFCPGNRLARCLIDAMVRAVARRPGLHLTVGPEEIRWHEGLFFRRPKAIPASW

NasF5053 (NascF5053) [1] = target: T2, NasF5053 (NascF5053) (Streptomyces sp. NRRL F-5053, UniProt A0A8I3B027); test: UV-Vis difference spectra, Soret shift, hyperbolic fit; conditions: read-out: binding constant
T2 construct: codon-optimised gene in pET28a, E. coli BL21(DE3); heme protein

NasF5053 (NascF5053) [2] = target: T3, NasF5053 (NascF5053) (Streptomyces sp. NRRL F-5053, UniProt A0A8I3B027, A86G/Q65I); test: as above; conditions: read-out: binding constant
T3 construct: codon-optimised gene in pET28a, E. coli BL21(DE3); heme protein
T3 sequence (A0A8I3B027 1-398 Q65I/A86G): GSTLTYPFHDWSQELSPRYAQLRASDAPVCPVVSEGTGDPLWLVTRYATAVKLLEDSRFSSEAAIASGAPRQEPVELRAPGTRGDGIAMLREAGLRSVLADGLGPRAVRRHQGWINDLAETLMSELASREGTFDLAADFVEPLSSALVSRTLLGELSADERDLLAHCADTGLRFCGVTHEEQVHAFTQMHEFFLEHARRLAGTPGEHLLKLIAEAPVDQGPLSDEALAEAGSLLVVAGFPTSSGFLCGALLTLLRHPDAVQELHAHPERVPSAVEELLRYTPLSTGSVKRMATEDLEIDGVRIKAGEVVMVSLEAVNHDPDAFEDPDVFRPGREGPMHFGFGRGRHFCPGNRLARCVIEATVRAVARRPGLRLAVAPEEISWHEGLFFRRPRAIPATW

NasF5053 (NascF5053) [3] = target: T4, NasF5053 (NascF5053) (Streptomyces sp. NRRL F-5053, UniProt A0A8I3B027, S284A/V288A); test: as above; conditions: read-out: binding constant
T4 construct: codon-optimised gene in pET28a, E. coli BL21(DE3); heme protein
T4 sequence (A0A8I3B027 1-398 S284A/V288A): T3 sequence (A0A8I3B027 1-398 Q65I/A86G) with I65Q, G86A, S284A, V288A

NasS1868 = target: T5, NasS1868 (Streptomyces sp. NRRL S-1868, UniProt A0ACD6BAV5); test: product formation by UHPLC-MS; type: biochemical; conditions: 1 mM substrate, 0.1 µM P450, spinach Fd/FdR, NADPH recycling, pH 7.5, 4 °C, 24 h; product aspergilazine A
T5 construct: codon-optimised gene in pMS1, Mycobacterium smegmatis mc2 155
T5 sequence (A0ACD6BAV5 1-401): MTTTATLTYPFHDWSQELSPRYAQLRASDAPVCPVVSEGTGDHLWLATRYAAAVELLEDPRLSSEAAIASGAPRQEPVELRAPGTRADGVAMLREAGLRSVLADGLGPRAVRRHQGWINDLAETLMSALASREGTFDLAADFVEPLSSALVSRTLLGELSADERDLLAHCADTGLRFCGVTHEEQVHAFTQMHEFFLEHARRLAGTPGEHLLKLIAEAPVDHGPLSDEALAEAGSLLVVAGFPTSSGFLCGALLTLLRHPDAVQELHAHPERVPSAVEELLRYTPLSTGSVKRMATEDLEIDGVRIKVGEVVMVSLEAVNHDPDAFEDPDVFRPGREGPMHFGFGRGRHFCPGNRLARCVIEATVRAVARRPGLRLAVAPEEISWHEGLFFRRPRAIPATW

T2 sequence (A0A8I3B027 entry or part of it): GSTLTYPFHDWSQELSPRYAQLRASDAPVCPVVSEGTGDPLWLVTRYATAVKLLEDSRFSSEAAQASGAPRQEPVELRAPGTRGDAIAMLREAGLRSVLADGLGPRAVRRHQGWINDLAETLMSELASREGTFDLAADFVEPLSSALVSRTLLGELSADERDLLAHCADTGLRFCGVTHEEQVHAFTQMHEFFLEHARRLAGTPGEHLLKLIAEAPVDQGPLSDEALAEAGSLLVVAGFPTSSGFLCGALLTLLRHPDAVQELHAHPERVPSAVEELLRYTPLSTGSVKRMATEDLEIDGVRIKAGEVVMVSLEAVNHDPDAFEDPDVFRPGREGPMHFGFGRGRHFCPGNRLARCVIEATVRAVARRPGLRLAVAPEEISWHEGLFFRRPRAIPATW

O=C1N[C@@H](Cc2c[nH]c3ccccc23)C(=O)N2CCC[C@@H]12 [cWL-PL]
product formation by UHPLC-MS (NasbB): NasbB was confirmed to efficiently dimerize the cWL-PL into NAS-B | Kd (NasF5053 (NascF5053) [1]): 11.6 ± 2.1 µM | Kd (NasF5053 (NascF5053) [2]): 25.6 ± 1 µM | Kd (NasF5053 (NascF5053) [3]): 4.81 ± 0.26 µM | product formation by UHPLC-MS (NasS1868): NasS1868 can convert cWL-PL into Asp-A
